Laboratory results reported in patent US5756478A, “Method for reducing toxicity of D-nucleoside analogs with L-nucleosides” (priority 1996, dated 1998).
Where “and” joins values, the source holds several entries; their conditions need not be identical. Identical values can stand only once. Entries after “also recorded” stand apart in the source; their conditions may differ. Like-named read-outs stand apart in the source and are kept apart here. One block for each compound: values may come before it.

Tests used:
Assay type in all cases: cell-based
HIV-1IIIB [1] = assay: Anti-HIV activity: protection of MT-2 cells infected with HIV-1IIIB (MTT-dye reduction); conditions: Human immunodeficiency virus 1, MT2, 120 h
Experimental: (§1) The following anti-HIV drugs were tested in combination with the L-nucleosides β-L-5-fluoro-2',b 3'-dideoxycytidine [β-L-FddC or L(-)FddC], β-L-5-fluoro-2',3'-dideoxy-2',3'-didehydrocytidine [β-L-Fd4C or L(-)Fd4C], β-L-5-fluoro-2',3'-dideoxy-3'-thiacytidine [L(-)FTC] and β-L-2',3'-dideoxy-3'-thiacytidine [L(-)SddC or 3TC]: 3'-azido-3'deoxythymidine (AZT) as well as the β-D-2',3'-dideoxynucleosides, for example, β-D-2',3'-dideoxycytidine (ddC), β-D-2',3'-dideoxyadenosine, β-D-2',3'-dideoxyinosine (DDI) and β-D-2',3'-didehydro-3'-deoxy-thymidine (D4T). β-L-FddC and β-L-Fd4C was obtained following the method of Lin, et al., J. Med. Chem., 37, no. 6 (1994). L(-)FTC and L(-)SddC were prepared by standard literature procedures. See, for example, Jeong, et al. J. Med. Chem., 36, 181 (1993). AZT was obtained from Sigma Chemical Co., St. Louis, Mo., USA. ddC was obtained from Aldrich Chemical Co., Milwaukke, Wis. USA. DDI and D4T were obtained from Bristol-Myers Co., Wallingford, Conn., USA.
(§2) The above-mentioned drugs were tested using MT-2 cells infected with HIV-1IIIB as described by JW Mellers, et al., Molecular Pharm. 41, 446-451 (1991) with some modification. Briefly, triplicate wells of 96-well plates containing 1×10^4 MT-2 cells were infected with HIV-1IIIB at a multiplicity of infection (MOI) of 0.1 TCID50 per cell (TCID50 - 50% tissue culture infective dose). Serial dilutions of drug were added immediately after infection. Cell viability was quantitated 5 days after infection by the MTT-dye reduction model (Larder, et al. Antimicrob. Agents Chemother. 34, 436-441, 1990). The percentage of protection was calculated with the formula [(a-b/c-b)×100], in which a=the A595 of drug-treated, virus-infected well, b=A595 of no-drug infected wells, and c=A595 of no-drug, uninfected wells.

HIV-1IIIB [2] = assay: Anti-HIV combination of D- and L-nucleosides in HIV-1IIIB infected MT-2 cells (isobolograms); conditions: for Effect of L-nucleoside on ID50 of co-administered D-nucleoside: with AZT, D4T, ddC or DDI; for Nature of the anti-HIV combination effect with L-nucleosides (ID50): D-nucleoside co-administered with β-L-FddC, L(-)FTC, L(-)SddC or β-L-Fd4C
Experimental: as §1, §2
Isobolograms (FIGS. 1-2) were plotted as the percent change in the ID50 of β-L-FddC (L(-)FddC), L(-)FTC, L(-)SddC (FIGS. 1 and 2) β-L-Fd4C (L(-)Fd4C) at various concentrations in combination with AZT, D4T, ddC or DDI at varying concentations on the x-axis and vice versa on the y-axis. Isobolograms (FIG. 3) were plotted as the percent change in the ID50 of β-L-Fd4C (L(-)Fd4C) at various concentrations in combination with AZT or D4T at varying concentrations on the x-axis and vice-versa on the y-axis.

[3] = system: CEM, a Human T-type lymphoblast tumor cell line; assay: Cell growth inhibition of CEM cells by D-nucleosides with or without L-nucleosides
Text: CEM, a Human T-type lymphoblast tumor cell line was used for this study. […] At the end of four days after the addition of the drug, the cell number was estimated by hemocytometer. […] The data, presented below in Table 1-3, are normalized against the control. The parenthetical values represent the expected effect the combined agents should have on cell growth.

[4] = MT-2 cells, HIV-1IIIB, MOI 0.1 TCID50 per cell, 5 days, read-out: ID50 (the source's name)
[5] = Homo sapiens, CCRF-CEM, 96 h, single agent, 0.1 uM, day 4, read-out: Day 4 Cell Growth - % of Control
[6] = Homo sapiens, CCRF-CEM, 96 h, single agent, 1.0 uM, day 4, read-out: Day 4 Cell Growth - % of Control
[7] = Homo sapiens, CCRF-CEM, 96 h, single agent, 50 uM, day 4, read-out: Day 4 Cell Growth - % of Control
[8] = 50 uM, in combination with 1 uM 3TC
[9] = 50 uM, in combination with 1 uM (-) FTC
[10] = 50 uM, in combination with 1 uM β-L-FddC

SMILES: Nc1ccn(C2CCC(CO)O2)c(=O)n1 [ddC, β-D-2',3'-dideoxycytidine]
IC50 (HIV-1IIIB [1]; [4]): 600 nM | Nature of the anti-HIV combination effect with L-nucleosides (ID50) (HIV-1IIIB [2]): additively; also recorded: additive | Day 4 Cell Growth - % of Control ([3]; 0.01 uM, in combination with 1 uM 3TC): 86 % of Control | Day 4 Cell Growth - % of Control ([3]; 0.01 uM, in combination with 1 uM (-) FTC): 91 % of Control | Day 4 Cell Growth - % of Control ([3]; 0.01 uM, in combination with 1 uM β-L-FddC): 88 % of Control | Day 4 Cell Growth - % of Control ([3]; 0.1 uM, in combination with 1 uM 3TC): 83 % of Control | Day 4 Cell Growth - % of Control ([3]; 0.1 uM, in combination with 1 uM (-) FTC): 87 % of Control | Day 4 Cell Growth - % of Control ([3]; 0.1 uM, in combination with 1 uM β-L-FddC): 84 % of Control | Day 4 Cell Growth - % of Control ([3]; 1.0 uM, in combination with 1 uM 3TC): 67 % of Control | Day 4 Cell Growth - % of Control ([3]; 1.0 uM, in combination with 1 uM (-) FTC): 69 % of Control | Day 4 Cell Growth - % of Control ([3]; 1.0 uM, in combination with 1 uM β-L-FddC): 76 % of Control | activity at 0.01 µM ([3]; Homo sapiens, CCRF-CEM, 96 h, single agent, 0.01 uM, day 4, read-out: Day 4 Cell Growth - % of Control): 92% | activity at 0.1 µM [3, 5]: 80% | activity at 1 µM [3, 6]: 70% | Day 4 Cell Growth - % of Control, expected effect of the combined agents (parenthetical) ([3]; 0.01 uM with 1 uM β-L-FddC): 78 % of Control | Day 4 Cell Growth - % of Control, expected effect of the combined agents (parenthetical) ([3]; 0.1 uM with 1 uM β-L-FddC): 78 % of Control | Day 4 Cell Growth - % of Control, expected effect of the combined agents (parenthetical) ([3]; 1.0 uM with 1 uM β-L-FddC): 66 % of Control | Day 4 Cell Growth - % of Control ([3]; single agent, 0.01 uM, 5760 min): 89 % of Control and 93 % of Control | Day 4 Cell Growth - % of Control ([3]; single agent, 0.1 uM, 5760 min): 83 % of Control and 93 % of Control | Day 4 Cell Growth - % of Control ([3]; single agent, 1.0 uM, 5760 min): 65 % of Control and 79 % of Control

SMILES: O=c1[nH]cnc2c1ncn2C1CCC(CO)O1 [DDI, β-D-2',3'-dideoxyinosine]
IC50 (HIV-1IIIB [1]; [4]): 20000 nM | Nature of the anti-HIV combination effect with L-nucleosides (ID50) (HIV-1IIIB [2]): additively; also recorded: additive | Day 4 Cell Growth - % of Control [3, 8]: 89 % of Control | Day 4 Cell Growth - % of Control [3, 9]: 84 % of Control | Day 4 Cell Growth - % of Control [3, 10]: 84 % of Control | Day 4 Cell Growth - % of Control ([3]; 100 uM, in combination with 1 uM 3TC): 87 % of Control | Day 4 Cell Growth - % of Control ([3]; 100 uM, in combination with 1 uM (-) FTC): 80 % of Control | Day 4 Cell Growth - % of Control ([3]; 100 uM, in combination with 1 uM β-L-FddC): 80 % of Control | Day 4 Cell Growth - % of Control ([3]; 200 uM, in combination with 1 uM 3TC): 80 % of Control | Day 4 Cell Growth - % of Control ([3]; 200 uM, in combination with 1 uM (-) FTC): 75 % of Control | Day 4 Cell Growth - % of Control ([3]; 200 uM, in combination with 1 uM β-L-FddC): 75 % of Control | activity at 50 µM [3, 7]: 88% | activity at 100 µM ([3]; Homo sapiens, CCRF-CEM, 96 h, single agent, 100 uM, day 4, read-out: Day 4 Cell Growth - % of Control): 85% | activity at 200 µM ([3]; Homo sapiens, CCRF-CEM, 96 h, single agent, 200 uM, day 4, read-out: Day 4 Cell Growth - % of Control): 78% | Day 4 Cell Growth - % of Control, expected effect of the combined agents (parenthetical) ([3]; 50 uM with 1 uM (-) FTC): 74 % of Control | Day 4 Cell Growth - % of Control, expected effect of the combined agents (parenthetical) ([3]; 50 uM with 1 uM β-L-FddC): 74 % of Control | Day 4 Cell Growth - % of Control, expected effect of the combined agents (parenthetical) ([3]; 100 uM with 1 uM (-) FTC): 71 % of Control | Day 4 Cell Growth - % of Control, expected effect of the combined agents (parenthetical) ([3]; 100 uM with 1 uM β-L-FddC): 71 % of Control | Day 4 Cell Growth - % of Control, expected effect of the combined agents (parenthetical) ([3]; 200 uM with 1 uM (-) FTC): 65 % of Control | Day 4 Cell Growth - % of Control, expected effect of the combined agents (parenthetical) ([3]; 200 uM with 1 uM β-L-FddC): 65 % of Control | Day 4 Cell Growth - % of Control ([3]; single agent, 50 uM, 5760 min): 94 % of Control | Day 4 Cell Growth - % of Control ([3]; single agent, 100 uM, 5760 min): 89 % of Control | Day 4 Cell Growth - % of Control ([3]; single agent, 200 uM, 5760 min): 79 % of Control

SMILES: Cc1cn([C@H]2C[C@H](N=[N+]=[N-])[C@@H](CO)O2)c(=O)[nH]c1=O [AZT, 3'-azido-3'deoxythymidine]
IC50 (HIV-1IIIB [1]; read-out: ID50): 90 nM | Nature of the anti-HIV combination effect with L-nucleosides (ID50) (HIV-1IIIB [2]): synergistically; also recorded: synergistic | Day 4 Cell Growth - % of Control ([3]; 0.5 uM, in combination with 1 uM 3TC): 83 % of Control | Day 4 Cell Growth - % of Control ([3]; 0.5 uM, in combination with 1 uM (-) FTC): 87 % of Control | Day 4 Cell Growth - % of Control ([3]; 0.5 uM, in combination with 1 uM β-L-FddC): 80 % of Control | Day 4 Cell Growth - % of Control ([3]; 5.0 uM, in combination with 1 uM 3TC): 76 % of Control | Day 4 Cell Growth - % of Control ([3]; 5.0 uM, in combination with 1 uM (-) FTC): 83 % of Control | Day 4 Cell Growth - % of Control ([3]; 5.0 uM, in combination with 1 uM β-L-FddC): 79 % of Control | Day 4 Cell Growth - % of Control [3, 8]: 70 % of Control | Day 4 Cell Growth - % of Control [3, 9]: 64 % of Control | Day 4 Cell Growth - % of Control [3, 10]: 75 % of Control | activity at 0.5 µM ([3]; Homo sapiens, CCRF-CEM, 96 h, single agent, 0.5 uM, day 4, read-out: Day 4 Cell Growth - % of Control): 91% | activity at 5 µM ([3]; Homo sapiens, CCRF-CEM, 96 h, single agent, 5.0 uM, day 4, read-out: Day 4 Cell Growth - % of Control): 89% | activity at 50 µM [3, 7]: 74% | Day 4 Cell Growth - % of Control, expected effect of the combined agents (parenthetical) ([3]; 0.5 uM with 1 uM β-L-FddC): 76 % of Control | Day 4 Cell Growth - % of Control, expected effect of the combined agents (parenthetical) ([3]; 5.0 uM with 1 uM β-L-FddC): 75 % of Control | Day 4 Cell Growth - % of Control, expected effect of the combined agents (parenthetical) ([3]; 50 uM with 1 uM β-L-FddC): 62 % of Control | Day 4 Cell Growth - % of Control ([3]; single agent, 0.5 uM, 5760 min): 82 % of Control and 85 % of Control | Day 4 Cell Growth - % of Control ([3]; single agent, 5.0 uM, 5760 min): 79 % of Control | Day 4 Cell Growth - % of Control ([3]; single agent, 50 uM, 5760 min): 72 % of Control

More lines, main results first:

IC50 (HIV-1IIIB [1]; [4]): 90 nM
SMILES: Nc1nc(=O)n([C@@H]2C=C[C@H](CO)O2)cc1F [β-L-Fd4C, β-L-5-fluoro-2',3'-dideoxy-2',3'-didehydrocytidine]
Effect of L-nucleoside on ID50 of co-administered D-nucleoside (HIV-1IIIB [2]): reduces the ID50 value of AZT, ddC, DDI and D4T; also recorded: decreases the ID50 of a co-administered D-nucleoside and vice versa

IC50 (HIV-1IIIB [1]; MT-2 cells, HIV-1IIIB, MOI 0.1 TCID50 per cell, 5 days, unit inferred, read-out: ID50 (the source's name)): 3000 nM
SMILES: Nc1ccn([C@@H]2CS[C@H](CO)O2)c(=O)n1 [L(-)SddC, β-L-2',3'-dideoxy-3'-thiacytidine]
Effect of L-nucleoside on ID50 of co-administered D-nucleoside (HIV-1IIIB [2]): reduces the ID50 value of AZT, ddC, DDI and D4T; also recorded: decreases the ID50 of a co-administered D-nucleoside and vice versa | activity at 0.1 µM [3, 5]: 94% | activity at 1 µM [3, 6]: 89% | activity at 10 µM ([3]; Homo sapiens, CCRF-CEM, 96 h, single agent, 10 uM, day 4, read-out: Day 4 Cell Growth - % of Control): 80% | activity at 50 µM [3, 7]: 76%
